Test results as given in PMC5514404 (EBioMedicine, 2017).

Key:
HIV-1 replication = details: ref Ewart et al., 2004; cited from earlier work
[1] = system: extracellular HIV-1 Tat release from HEK293T cells; assay: HIV-1 Tat secretion assay; type: cell-based, human
[2] = system: Na^+,K^+-ATPase α1 subunit (interaction with Tat); assay: Co-immunoprecipitation of Tat with endogenous Na^+,K^+-ATPase α1 subunit; type: cell-based, human; details: HEK293T, Tat86 transfected; ouabain 25 μM, 4 h
[3] = system: HIV-1 LTR transactivation in HL3T1 cells by supernatants of Tat86-transfected HEK293T cells; assay: Transcellular transactivation assay; type: cell-based; details: ouabain 25 μM, 4 h; HL3T1 24 h; CAT ELISA
[4] = system: VSV-G pseudotyped HIV-1NL4.3E-R-Luc production by HEK293T cells; type: cell-based
[5] = system: wt HIV-1BRU production by HEK293T cells; type: cell-based; details: p24 ELISA; ouabain; P<0.01 over untreated
[6] = system: VSV-G-pseudotyped HIV-1NL4.3E-R-Luc infectivity in Jurkat cells; type: cell-based
[7] = system: HIV-1BRU infectivity in Jurkat cells; type: cell-based; details: P < 0.01
[8] = system: HIV-1BRU infectivity in primary CD4 + lymphocytes; type: cell-based; details: p24 at 72 h, P < 0.01
[9] = system: VSV-G-pseudotyped HIV-1NL4.3E-R-Luc infection of Jurkat cells; type: cell-based
HEK293T cells = details: ouabain 15 h
rat Na^+,K^+-ATPase = details: ref Emanuel et al., 1988; cited from earlier work
[10] = system: rat Na^+,K^+-ATPase α1 (interaction with Tat); assay: Co-immunoprecipitation of Tat with transfected rat Na^+,K^+-ATPase α1; details: HEK293T transfected with rat α1 constructs and Tat86-TK / Tat11-TK
[11] = target: Tat86 used in surface plasmon resonance (HIV-1 (strain HXB2), UniProt P04608 1-86); assay: SPR

CCN(c1nc(N)c(C(=O)NC(=N)N)nc1Cl)C(C)C [EIPA, 5-(N-ethyl-N-isopropyl)amiloride]
effect on HIV-1 replication (HIV-1 replication): known to limit HIV-1 replication

C[C@@H]1O[C@@H](O[C@H]2C[C@@H](O)[C@]3(CO)[C@H]4[C@H](O)C[C@]5(C)[C@@H](C6=CC(=O)OC6)CC[C@]5(O)[C@@H]4CC[C@]3(O)C2)[C@H](O)[C@H](O)[C@H]1O [ouabain]
effect on Tat protein production ([1]; protein levels in whole cell extracts, ouabain 25 μM): did not affect Tat protein production | effect on Tat-α1 co-immunoprecipitation (endogenous α1) [2]: abolished this interaction | effect of ouabain on transcellular transactivation [3]: blocked transcellular transactivation | production of VSV-G pseudotyped virions [4]: significantly decreased the production of VSV-G pseudotyped virions | production of wt HIV-1BRU virions [5]: The same was also observed for wt HIV-1BRU virions | infectivity of virions produced in presence of ouabain [6]: markedly less infectious | viral integration (Alu-PCR) by virions produced in presence of ouabain [6]: reduced viral integration | viral integration (Alu-PCR) by HIV-1BRU produced in presence of ouabain [7]: reduced viral integration | infectivity of HIV-1BRU produced in presence of ouabain ([7]; p24 at 72 h): markedly less infectious | infectivity of HIV-1BRU produced in presence of ouabain [8]: markedly less infectious | effect of ouabain present at infection on virions produced without ouabain [9]: unaffected by the presence of the drug | cell toxicity during virus production (HEK293T cells): did not exert significant cell toxicity | sensitivity of rat Na^+,K^+-ATPase enzyme to ouabain (rat Na^+,K^+-ATPase): insensitive to ouabain | co-immunoprecipitation with Tat / ouabain effect, rat α1 [10]: binding is not sensitive to ouabain

heparin
amount of free Tat-TK protein in the supernatant ([1]; HEK293T, soluble heparin 25 μM): increased

B1: synthetic P2 peptide (peptide, UniProt P06685 939-951, looked up)
peptide: TRRNSVFQQGMKN
IC50 [11]: 10 µM

B2: PMIX, equimolar mixture of the individual P1, P2 and P3 peptides (other, rat)
peptide 1: YEQAESDIMKRQPRNPKTDK
peptide 2: TRRNSVFQQGMKN
peptide 3: LIIRRRPGGWVEKETYY
IC50 [11]: 0.5 µM
